Data as given in the NIST ThermoML archive (doi:10.1021/je300945r).

F/C=C/C(F)(F)F [trans-1,3,3,3-tetrafluoropropene]
Details | mass density [kg/m3]
302.78 K, 433.9 kPa, Gas, isochoric method | 22.222
303.13 K, 802 kPa, Liquid, Vibrating tube method | 1145.9
303.13 K, 1676 kPa, Liquid, Vibrating tube method | 1151.1
303.13 K, 4747 kPa, Liquid, Vibrating tube method | 1167.3
303.13 K, 7769 kPa, Liquid, Vibrating tube method | 1181.3
303.13 K, 8772 kPa, Liquid, Vibrating tube method | 1185.8
303.14 K, 2678 kPa, Liquid, Vibrating tube method | 1156.8
303.14 K, 3716 kPa, Liquid, Vibrating tube method | 1162.3
303.14 K, 5757 kPa, Liquid, Vibrating tube method | 1172.2
303.14 K, 6764 kPa, Liquid, Vibrating tube method | 1176.9
303.14 K, 9773 kPa, Liquid, Vibrating tube method | 1190
303.14 K, 10775 kPa, Liquid, Vibrating tube method | 1194.1
303.14 K, 11778 kPa, Liquid, Vibrating tube method | 1197.9
303.14 K, 12794 kPa, Liquid, Vibrating tube method | 1201.7
303.14 K, 13809 kPa, Liquid, Vibrating tube method | 1205.3
303.14 K, 14819 kPa, Liquid, Vibrating tube method | 1209.1
303.14 K, 15824 kPa, Liquid, Vibrating tube method | 1212.5
303.14 K, 16838 kPa, Liquid, Vibrating tube method | 1216
303.14 K, 17845 kPa, Liquid, Vibrating tube method | 1219.4
303.14 K, 18856 kPa, Liquid, Vibrating tube method | 1222.6
303.14 K, 19875 kPa, Liquid, Vibrating tube method | 1225.8
303.14 K, 20888 kPa, Liquid, Vibrating tube method | 1228.8
303.14 K, 21899 kPa, Liquid, Vibrating tube method | 1232
303.14 K, 22909 kPa, Liquid, Vibrating tube method | 1234.9
303.14 K, 23916 kPa, Liquid, Vibrating tube method | 1238
303.14 K, 24920 kPa, Liquid, Vibrating tube method | 1240.8
303.14 K, 25928 kPa, Liquid, Vibrating tube method | 1243.5
303.14 K, 26942 kPa, Liquid, Vibrating tube method | 1246.4
303.14 K, 27943 kPa, Liquid, Vibrating tube method | 1249.1
303.14 K, 28955 kPa, Liquid, Vibrating tube method | 1251.6
303.14 K, 29958 kPa, Liquid, Vibrating tube method | 1254.5
303.14 K, 30966 kPa, Liquid, Vibrating tube method | 1256.7
303.15 K, 31972 kPa, Liquid, Vibrating tube method | 1259.5
303.15 K, 32984 kPa, Liquid, Vibrating tube method | 1262
303.15 K, 33993 kPa, Liquid, Vibrating tube method | 1264.4
312.59 K, 574.7 kPa, Gas, isochoric method | 28.571
312.6 K, 574.7 kPa, Gas, isochoric method | 28.571
312.61 K, 397.1 kPa, Gas, isochoric method | 19.231
312.61 K, 397.2 kPa, Gas, isochoric method | 19.231
312.72 K, 168.6 kPa, Gas, isochoric method | 7.634
312.76 K, 451.9 kPa, Gas, isochoric method | 21.739
312.76 K, 452 kPa, Gas, isochoric method | 21.739
312.8 K, 74.3 kPa, Gas, isochoric method | 3.311
312.84 K, 268.5 kPa, Gas, isochoric method | 12.5
313.13 K, 630.3 kPa, Gas, isochoric method | 32.258
313.13 K, 630.4 kPa, Gas, isochoric method | 32.258
313.14 K, 775 kPa, Liquid, Vibrating tube method | 1109.9
313.14 K, 1656 kPa, Liquid, Vibrating tube method | 1116.2
313.14 K, 2657 kPa, Liquid, Vibrating tube method | 1122.9
313.14 K, 3683 kPa, Liquid, Vibrating tube method | 1129.4
313.14 K, 5739 kPa, Liquid, Vibrating tube method | 1141.4
313.14 K, 6749 kPa, Liquid, Vibrating tube method | 1146.8
313.14 K, 7763 kPa, Liquid, Vibrating tube method | 1152.1
313.14 K, 8784 kPa, Liquid, Vibrating tube method | 1157.1
313.14 K, 9798 kPa, Liquid, Vibrating tube method | 1161.9
313.14 K, 10800 kPa, Liquid, Vibrating tube method | 1166.5
313.14 K, 11816 kPa, Liquid, Vibrating tube method | 1170.9
313.14 K, 12819 kPa, Liquid, Vibrating tube method | 1175.2
313.14 K, 13831 kPa, Liquid, Vibrating tube method | 1179.3
313.14 K, 14845 kPa, Liquid, Vibrating tube method | 1183.4
313.14 K, 15848 kPa, Liquid, Vibrating tube method | 1187.2
313.14 K, 16855 kPa, Liquid, Vibrating tube method | 1191.1
313.14 K, 18874 kPa, Liquid, Vibrating tube method | 1198.3
313.14 K, 19890 kPa, Liquid, Vibrating tube method | 1201.9
313.14 K, 20909 kPa, Liquid, Vibrating tube method | 1205.3
313.14 K, 21923 kPa, Liquid, Vibrating tube method | 1208.7
313.14 K, 22937 kPa, Liquid, Vibrating tube method | 1212
313.14 K, 23947 kPa, Liquid, Vibrating tube method | 1215.2
313.14 K, 25962 kPa, Liquid, Vibrating tube method | 1221.3
313.14 K, 26971 kPa, Liquid, Vibrating tube method | 1224.3
313.14 K, 28984 kPa, Liquid, Vibrating tube method | 1230.1
313.15 K, 4723 kPa, Liquid, Vibrating tube method | 1135.7
313.15 K, 17865 kPa, Liquid, Vibrating tube method | 1194.7
313.15 K, 24948 kPa, Liquid, Vibrating tube method | 1218.2
313.15 K, 27973 kPa, Liquid, Vibrating tube method | 1227.2
313.15 K, 30002 kPa, Liquid, Vibrating tube method | 1232.9
313.15 K, 31006 kPa, Liquid, Vibrating tube method | 1235.7
313.15 K, 32010 kPa, Liquid, Vibrating tube method | 1238.4
313.15 K, 33010 kPa, Liquid, Vibrating tube method | 1241
313.15 K, 34013 kPa, Liquid, Vibrating tube method | 1243.6
323.1 K, 76.8 kPa, Gas, isochoric method | 3.311
323.1 K, 278.4 kPa, Gas, isochoric method | 12.346
323.1 K, 470.5 kPa, Gas, isochoric method | 21.739
323.11 K, 174.6 kPa, Gas, isochoric method | 7.634
323.11 K, 413.3 kPa, Gas, isochoric method | 19.231
323.11 K, 413.4 kPa, Gas, isochoric method | 19.231
323.11 K, 658.4 kPa, Gas, isochoric method | 32.258
323.12 K, 836.8 kPa, Gas, isochoric method | 43.478
323.14 K, 1009 kPa, Liquid, Vibrating tube method | 1071.8
323.14 K, 1595 kPa, Liquid, Vibrating tube method | 1077.1
323.14 K, 2609 kPa, Liquid, Vibrating tube method | 1085.6
323.14 K, 3638 kPa, Liquid, Vibrating tube method | 1093.6
323.14 K, 4686 kPa, Liquid, Vibrating tube method | 1101.1
323.14 K, 5705 kPa, Liquid, Vibrating tube method | 1108
323.14 K, 6730 kPa, Liquid, Vibrating tube method | 1114.5
323.14 K, 7748 kPa, Liquid, Vibrating tube method | 1120.7
